Assay results: patent publication US10934302B1, “SHP2 phosphatase inhibitors and methods of use thereof” (Relay Therapeutics, Inc., priority 2018, dated 2021)

What follows are compounds tested against SHP2 (Homo sapiens (Human), UniProt Q06124) (assay: SHP2 allosteric inhibition assay (DiFMUP prompt fluorescence)). Details: 0.25 nM SHP2 activated with 0.5 μM peptide IRS1_pY1172(dPEG8)pY1222; substrate DiFMUP.
Assay type: biochemical

SMILES	IC50 [nM]
N[C@@H]1c2cc(F)cc(F)c2CC12CCN(c1cnc3c(N4CCCc5ncccc54)n[nH]c3n1)CC2 [Example 109]	≤ 50
Cn1ncc2c1CC1(CCN(c3cnc4c(N5CCCc6ncccc65)n[nH]c4n3)CC1)[C@@H]2N [Example 110]	≤ 50
N[C@@H]1c2ccccc2CC12CCN(c1cnc(C(=O)N3CCCc4ncccc43)cn1)CC2 [Example 111]	≤ 50
N[C@@H]1c2c(F)ccc(F)c2CC12CCN(c1cnc3c(N4CCCc5ncccc54)n[nH]c3n1)CC2 [Example 112]	≤ 50
N[C@H]1c2ccccc2CC12CN(c1cnc3c(N4CCCc5ncccc54)n[nH]c3n1)C2 [Example 114]	≤ 50
N[C@@H]1c2ccccc2CC12CN(c1cnc3c(N4CCCc5ncccc54)n[nH]c3n1)C2 [Example 115]	≤ 50
N#Cc1cccc2c1CC1(CCN(c3cnc4c(N5CCCc6ncccc65)n[nH]c4n3)CC1)[C@@H]2N [Example 117, (S)-1-amino-1′-(3-(3,4-dihydro-1,5-naphthyridin-1(2H)-yl)-1H-pyrazolo[3,4-b]pyrazin-6-yl)-1,3-dihydrospiro[indene-2,4′-piperidine]-4-carbonitrile]	≤ 50
N[C@H]1c2ccccc2OC12CCN(c1cnc3c(N4CCCc5ncccc54)n[nH]c3n1)CC2 [Example 118, (S)-1′-(3-(3,4-dihydro-1,5-naphthyridin-1(2H)-yl)-1H-pyrazolo[3,4-b]pyrazin-6-yl)-3H-spiro[benzofuran-2,4′-piperidin]-3-amine]	≤ 50
N[C@@H]1c2ccccc2OC12CCN(c1cnc3c(N4CCCc5ncccc54)n[nH]c3n1)CC2 [Example 119, (R)-1′-(3-(3,4-dihydro-1,5-naphthyridin-1(2H)-yl)-1H-pyrazolo[3,4-b]pyrazin-6-yl)-3H-spiro[benzofuran-2,4′-piperidin]-3-amine]	≤ 50
N[C@@H]1c2ccccc2CC12CCN(c1nccnc1CO)CC2 [Example 120, {3-[(3S)-3-amino-1,3-dihydrospiro[indene-2,4′-piperidin]-1′-yl]pyrazin-2-yl}methanol]	≤ 50
Nc1cnc(CO)c(N2CCC3(CC2)Cc2ccccc2[C@H]3N)n1 [Example 123, {5-amino-3-[(3S)-3-amino-1,3-dihydrospiro[indene-2,4′-piperidin]-1′-yl]pyrazin-2-yl}methanol]	≤ 50
Cc1nc2c(N3CCCc4ncccc43)n[nH]c2nc1N1CCC2(CC1)Cc1ccccc1[C@H]2N [Example 124, (S)-1′-(3-(3,4-dihydro-1,5-naphthyridin-1(2H)-yl)-5-methyl-1H-pyrazolo[3,4-b]pyrazin-6-yl)-1,3-dihydrospiro[indene-2,4′-piperidin]-1-amine]	≤ 50
CNC(=O)c1n[nH]c2nc(N3CCC4(CC3)Cc3ccccc3[C@H]4N)c(C)nc12 [Example 125, 6-[(3S)-3-amino-1,3-dihydrospiro[indene-2,4′-piperidin]-1′-yl]-N,5-dimethyl-1H-pyrazolo[3,4-b]pyrazine-3-carboxamide]	≤ 50
Nc1cc(Sc2cnc(N3CCC4(CC3)Cc3ccccc3[C@H]4N)cn2)c(Cl)c(Cl)n1 [Example 129, (S)-1′-(5-((6-amino-2,3-dichloropyridin-4-yl)thio)pyrazin-2-yl)-1,3-dihydrospiro[indene-2,4′-piperidin]-1-amine]	≤ 50
N[C@@H]1c2ccccc2CC12CCN(c1cnc(Sc3ccnc(Cl)c3Cl)cn1)CC2 [Example 130, (3S)-1′-{5-[(2,3-dichloropyridin-4-yl)sulfanyl]pyrazin-2-yl}-1,3-dihydrospiro[indene-2,4′-piperidin]-3-amine]	≤ 50
Cc1nc2c(N3CCCCC3)n[nH]c2nc1N1CCC2(CC1)Cc1ccccc1[C@H]2N [Example 152, (3S)-1′-[5-methyl-3-(piperidin-1-yl)-1H-pyrazolo[3,4-b]pyrazin-6-yl]-1,3-dihydrospiro[indene-2,4′-piperidin]-3-amine]	≤ 50

The remaining lines, values ahead:

IC50 [nM]	SMILES
≤ 50	N[C@@H]1c2ccccc2CC12CCN(c1cnc3c(Oc4ccnc(Cl)c4Cl)n[nH]c3n1)CC2 [Example 126, (3S)-1′-{3-[(2,3-dichloropyridin-4-yl)oxy]-1H-pyrazolo[3,4-b]pyrazin-6-yl}-1,3-dihydrospiro[indene-2,4′-piperidin]-3-amine]
50 to 1000	Cc1nccc(Oc2n[nH]c3nc(N4CCC5(CC4)Cc4ccccc4[C@H]5N)cnc23)c1Cl [Example 127]
≤ 50	Cn1ccc(Oc2n[nH]c3nc(N4CCC5(CC4)Cc4ccccc4[C@H]5N)cnc23)c(Cl)c1=O [Example 128, (S)-4-((6-(1-amino-1,3-dihydrospiro[indene-2,4′-piperidin]-1′-yl)-1H-pyrazolo[3,4-b]pyrazin-3-yl)oxy)-3-chloro-1-methylpyridin-2(H)-one]
≤ 50	N[C@@H]1c2ccccc2CC12CCN(c1cnc(Sc3cc[nH]c(=O)c3Cl)cn1)CC2 [Example 131, 4-({5-[(3S)-3-amino-1,3-dihydrospiro[indene-2,4′-piperidin]-1′-yl]pyrazin-2-yl}sulfanyl)-3-chloro-1,2-dihydropyridin-2-one]
≤ 50	Cn1ccc(Sc2cnc(N3CCC4(CC3)Cc3ccccc3[C@H]4N)cn2)c(Cl)c1=O [Example 132, 4-({5-[(3S)-3-amino-1,3-dihydrospiro[indene-2,4′-piperidin]-1′-yl]pyrazin-2-yl}sulfanyl)-3-chloro-1-methyl-1,2-dihydropyridin-2-one]
≤ 50	Nc1nccc(Oc2cnc(N3CCC4(CC3)Cc3ccccc3[C@H]4N)cn2)c1Cl [Example 133, (3S)-1′-{5-[(2-amino-3-chloropyridin-4-yl)oxy]pyrazin-2-yl}-1,3-dihydrospiro[indene-2,4′-piperidin]-3-amine]
≤ 50	N[C@@H]1c2ccccc2CC12CCN(c1cnc(Oc3ccnc(Cl)c3Cl)cn1)CC2 [Example 134, (3S)-1′-{5-[(2,3-dichloropyridin-4-yl)oxy]pyrazin-2-yl}-1,3-dihydrospiro[indene-2,4′-piperidin]-3-amine]
≤ 50	N[C@@H]1c2ccccc2CC12CCN(c1cnc3c(Oc4cc[nH]c(=O)c4Cl)n[nH]c3n1)CC2 [Example 135, 4-({6-[(3S)-3-amino-1,3-dihydrospiro[indene-2,4′-piperidin]-1′-yl]-1H-pyrazolo[3,4-b]pyrazin-3-yl}oxy)-3-chloro-1,2-dihydropyridin-2-one]
≤ 50	Nc1nccc(Nc2n[nH]c3nc(N4CCC5(CC4)Cc4ccccc4[C@H]5N)cnc23)c1Cl [Example 138, (S)—N4-(6-(1-amino-1,3-dihydrospiro[indene-2,4′-piperidin]-1′-yl)-1H-pyrazolo[3,4-b]pyrazin-3-yl)-3-chloropyridine-2,4-diamine]
≤ 50	Nc1nccc(Sc2cnc(N3CCC4(CC3)Cc3c(F)cccc3[C@H]4N)cn2)c1Cl [Example 139, (S)-1′-(5-((2-amino-3-chloropyridin-4-yl)thio)pyrazin-2-V)-4-fluoro-1,3-dihydrospiro[indene-2,4′-piperidin]-1-amine]
≤ 50	N[C@@H]1c2ccccc2CC12CCN(c1nc3[nH]nc(N4CCCc5ncccc54)c3nc1C(F)F)CC2 [Example 140, (S)-1′-(5-(difluoromethyl)-3-(3,4-dihydro-1,5-naphthyridin-1(2H)-yl)-1H-pyrazolo[3,4-b]pyrazin-6-yl)-1,3-dihydrospiro[indene-2,4′-piperidin]-1-amine]
≤ 50	N[C@@H]1c2ccccc2CC12CCN(c1cnc3c(C#Cc4ccccc4)n[nH]c3n1)CC2 [Example 143, (S)-1′-(3-(phenylethynyl)-1H-pyrazolo[3,4-b]pyrazin-6-yl)-1,3-dihydrospiro[indene-2,4′-piperidin]-1-amine]
≤ 50	Cc1c(-c2ccccc2Cl)nc2sc(N3CCC4(CC3)Cc3ccccc3[C@H]4N)nn12 [Example 144, (S)-1′-(6-(2-chlorophenyl)-5-methylimidazo[2,1-b][1,3,4]thiadiazol-2-yl)-1,3-dihydrospiro[indene-2,4′-piperidin]-1-amine]
≤ 50	N[C@@H]1c2ccccc2CC12CCN(c1ncc(-c3ccccc3Cl)s1)CC2 [Example 145, (S)-1′-(5-(2-chlorophenyl)thiazol-2-yl)-1,3-dihydrospiro[indene-2,4′-piperidin]-1-amine]
≤ 50	N[C@@H]1c2ccccc2CC12CCN(c1cnc(N3CCCc4ncccc43)cn1)CC2 [Example 146, (3S)-1′-[5-(1,2,3,4-tetrahydro-1,5-naphthyridin-1-yl)pyrazin-2-yl]-1,3-dihydrospiro[indene-2,4′-piperidin]-3-amine]
≤ 50	N[C@@H]1c2ccccc2CC12CCN(c1cnc(Sc3cccc(Cl)c3Cl)cn1)CC2 [Example 147, (S)-1′-(5-((2,3-dichlorophenyl)thio)pyrazin-2-yl)-1,3-dihydrospiro[indene-2,4′-piperidin]-1-amine]
≤ 50	CN(c1ccnc(N)c1)c1n[nH]c2nc(N3CCC4(CC3)Cc3ccccc3[C@H]4N)cnc12 [Example 148, (S)—N4-(6-(1-amino-1,3-dihydrospiro[indene-2,4′-piperidin]-1′-yl)-1H-pyrazolo[3,4-b]pyrazin-3-yl)-N4-methylpyridine-2,4-diamine]
≤ 50	Cc1nc2c(N3CCCc4nc(-c5cnn(C)c5)ccc43)n[nH]c2nc1N1CCC2(CC1)Cc1ccccc1[C@H]2N [Example 149, (3S)-1′-{5-methyl-3-[6-(1-methyl-1H-pyrazol-4-yl)-1,2,3,4-tetrahydro-1,5-naphthyridin-1-yl]-1H-pyrazolo[3,4-b]pyrazin-6-yl}-1,3-dihydrospiro[indene-2,4′-piperidin]-3-amine]
≤ 50	N#CCc1n[nH]c2nc(N3CCC4(CC3)Cc3ccccc3[C@H]4N)c(CO)nc12 [Example 153, 2-{6-[(3S)-3-amino-1,3-dihydrospiro[indene-2,4′-piperidin]-1′-yl]-5-(hydroxymethyl)-1H-pyrazolo[3,4-b]pyrazin-3-yl}acetonitrile]
≤ 50	N#Cc1n[nH]c2nc(N3CCC4(CC3)Cc3ccccc3[C@H]4N)c(CO)nc12 [Example 154, 6-[(3S)-3-amino-1,3-dihydrospiro[indene-2,4′-piperidin]-1′-yl]-5-(hydroxymethyl)-1H-pyrazolo[3,4-b]pyrazine-3-carbonitrile]
